Data from PubChem BioAssay (NCI).
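48-hour exposure; five concentrations; linearly interpolated endpoints. The concentration for 50% growth inhibition is given as GI50. TGI: concentration producing complete growth inhibition.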

Columns and labels:
Test in all cases: NCI anticancer screen, dose series, 48 h
[1] = tested on: 786-0 renal
[2] = tested on: A498 renal
[3] = tested on: A549 NSCLC
[4] = tested on: ACHN renal
[5] = tested on: BT-549 breast
[6] = tested on: CAKI-1 renal
[7] = tested on: COLO 205 colon
[8] = tested on: DU-145 prostate
[9] = tested on: EKVX NSCLC
[10] = tested on: HCC-2998 colon
[11] = tested on: HCT-116 colon
[12] = tested on: HCT-15 colon
[13] = tested on: HL-60(TB) leukemia
[14] = tested on: HOP-62 NSCLC
[15] = tested on: HOP-92 NSCLC
[16] = tested on: HS 578T breast
[17] = tested on: HT29 colon
[18] = tested on: IGROV1 ovarian
[19] = tested on: K-562 leukemia
[20] = tested on: KM12 colon
[21] = tested on: LOX IMVI melanoma
[22] = tested on: M14 melanoma
[23] = tested on: MALME-3M melanoma
[24] = tested on: MCF7 breast
[25] = tested on: MDA-MB-231 breast
[26] = tested on: MDA-MB-435
[27] = tested on: MOLT-4 leukemia
[28] = tested on: NCI-H226 lung
[29] = tested on: NCI-H460 lung
[30] = tested on: NCI-H522 lung
[31] = tested on: NCI/ADR-RES ovarian
[32] = tested on: OVCAR-3 ovarian
[33] = tested on: OVCAR-4 ovarian
[34] = tested on: OVCAR-5 ovarian
[35] = tested on: OVCAR-8 ovarian
[36] = tested on: PC-3 prostate
[37] = tested on: RPMI-8226 leukemia
[38] = tested on: RXF 393 renal
[39] = tested on: SF-268 CNS
[40] = tested on: SF-295 CNS
[41] = tested on: SF-539 CNS
[42] = tested on: SK-MEL-2 melanoma
[43] = tested on: SK-MEL-28 melanoma
[44] = tested on: SK-MEL-5 melanoma
[45] = tested on: SK-OV-3 ovarian
[46] = tested on: SN12C renal
[47] = tested on: SNB-19 CNS
[48] = tested on: SNB-75 CNS
[49] = tested on: SR leukemia
[50] = tested on: SW-620 colon
[51] = tested on: T-47D breast
[52] = tested on: TK-10 renal
[53] = tested on: U251 CNS
[54] = tested on: UACC-257 melanoma
[55] = tested on: UACC-62 melanoma
[56] = tested on: UO-31 renal
[57] = tested on: CCRF-CEM leukemia
[58] = tested on: NCI-H23 lung

## CCn1c2ccc(/C=N/OCCCN(C)C)cc2c2cc(/C=N/OCCCN(C)C)ccc21
[1]
  GI50: 1550 nM
  TGI: 3200 nM
[2]
  GI50: 4450 nM
  TGI: 17200 nM
[3]
  GI50: 1590 nM
  TGI: 3010 nM
[4]
  GI50: 1720 nM
  TGI: 3130 nM
[5]
  GI50: 1710 nM
  TGI: 3220 nM
[6]
  GI50: 1430 nM
  TGI: 2740 nM
[7]
  GI50: 1610 nM
  TGI: 3050 nM
[8]
  GI50: 3460 nM
  TGI: 12300 nM
[9]
  GI50: 3260 nM
  TGI: 13700 nM
[10]
  GI50: 1510 nM
  TGI: 2950 nM
[11]
  GI50: 1270 nM
  TGI: 2700 nM
[12]
  GI50: 1750 nM
  TGI: 3960 nM
[13]
  GI50: 1680 nM
  TGI: 3950 nM
[14]
  GI50: 4640 nM
  TGI: 18900 nM
[15]
  GI50: 1700 nM
  TGI: 8220 nM
[16]
  GI50: 2520 nM
  TGI: 7950 nM
[17]
  GI50: 1520 nM
  TGI: 3510 nM
[18]
  GI50: 3080 nM
  TGI: 10300 nM
[19]
  GI50: 1490 nM
  TGI: 3630 nM
[20]
  GI50: 3240 nM
  TGI: 13700 nM
[21]
  GI50: 1500 nM
  TGI: 2940 nM
[22]
  GI50: 1700 nM
  TGI: 3230 nM
[23]
  GI50: 1800 nM
  TGI: 3400 nM
[24]
  GI50: 1490 nM
  TGI: 3070 nM
[25]
  GI50: 2230 nM
  TGI: 5340 nM
[26]
  GI50: 1480 nM
  TGI: 2840 nM
[27]
  GI50: 1920 nM
  TGI: 6210 nM
[28]
  GI50: 10000 nM
  TGI: 25200 nM
[29]
  GI50: 2020 nM
  TGI: 4360 nM
[30]
  GI50: 1730 nM
  TGI: 3430 nM
[31]
  GI50: 1970 nM
  TGI: 4890 nM
[32]
  GI50: 2080 nM
  TGI: 5280 nM
[33]
  GI50: 1730 nM
  TGI: 3350 nM
[34]
  GI50: 2880 nM
  TGI: 11500 nM
[35]
  GI50: 2070 nM
  TGI: 4880 nM
[36]
  GI50: 2510 nM
  TGI: 10900 nM
[37]
  GI50: 1770 nM
  TGI: 4080 nM
[38]
  GI50: 1180 nM
  TGI: 2490 nM
[39]
  GI50: 3690 nM
  TGI: 14200 nM
[40]
  GI50: 1940 nM
  TGI: 3820 nM
[41]
  GI50: 1620 nM
  TGI: 2990 nM
[42]
  GI50: 15700 nM
  TGI: 30300 nM
[43]
  GI50: 1650 nM
  TGI: 3180 nM
[44]
  GI50: 1800 nM
  TGI: 3230 nM
[45]
  GI50: 16400 nM
  TGI: 31200 nM
[46]
  GI50: 9080 nM
  TGI: 21500 nM
[47]
  GI50: 3650 nM
  TGI: 14000 nM
[48]
  GI50: 1680 nM
  TGI: 3930 nM
[49]
  GI50: 1830 nM
  TGI: 4380 nM
[50]
  GI50: 1810 nM
  TGI: 3780 nM
[51]
  GI50: 1800 nM
  TGI: 3820 nM
[52]
  GI50: 14100 nM
  TGI: 28200 nM
[53]
  GI50: 1620 nM
  TGI: 3140 nM
[54]
  GI50: 1680 nM
  TGI: 3090 nM
[55]
  GI50: 1920 nM
  TGI: 3870 nM
[56]
  GI50: 1500 nM
  TGI: 3240 nM

## CC(=O)Nc1ccc(NC(=O)Nc2cccc(-c3nc(-c4ccc(NC(=O)c5cccs5)cc4Cl)no3)c2)cc1C(F)(F)F
[1]
  GI50: 2120 nM
  TGI: 4760 nM
[4]
  GI50: 2670 nM
  TGI: 8410 nM
[5]
  GI50: 1680 nM
  TGI: 4600 nM
[57]
  GI50: 1830 nM
  TGI: > 100000 nM
[14]
  GI50: 718 nM
  TGI: 2250 nM
[15]
  GI50: 1090 nM
  TGI: 3020 nM
[16]
  GI50: 1830 nM
  TGI: 4550 nM
[25]
  GI50: 666 nM
  TGI: 2230 nM
[58]
  GI50: 1330 nM
  TGI: 3040 nM
[31]
  GI50: 19700 nM
  TGI: > 100000 nM
[38]
  GI50: 1140 nM
  TGI: 2450 nM
[39]
  GI50: 1560 nM
  TGI: 4080 nM
[40]
  GI50: 1460 nM
  TGI: 2990 nM
[41]
  GI50: 1450 nM
  TGI: 2910 nM
[42]
  GI50: 2060 nM
  TGI: 4150 nM
[47]
  GI50: 692 nM
  TGI: 2670 nM
[48]
  GI50: 1310 nM
  TGI: 2990 nM
[52]
  GI50: 2190 nM
  TGI: 5070 nM
[53]
  GI50: 354 nM
  TGI: 1080 nM

## CCC(C)[C@H]1OC(=O)[C@H](C(C)C)N(C)C(=O)[C@@H](C(C)C)OC(=O)[C@H](C(C)C)N(C)C(=O)[C@@H](C(C)CC)OC(=O)[C@H](C(C)C)N(C)C1=O (some centres not stated)
[1]
  GI50: 575 nM
  TGI: 5390 nM
[2]
  GI50: 390 nM
  TGI: 1170 nM
[3]
  GI50: 514 nM
  TGI: > 16700 nM
[4]
  GI50: 517 nM
  TGI: 2960 nM
[5]
  GI50: 501 nM
  TGI: 1750 nM
[57]
  GI50: 600 nM
  TGI: 3040 nM
[7]
  GI50: 341 nM
  TGI: 743 nM
[9]
  GI50: 554 nM
  TGI: > 16700 nM
[10]
  GI50: 846 nM
  TGI: 8060 nM
[11]
  GI50: 532 nM
  TGI: > 16700 nM
[12]
  GI50: 536 nM
  TGI: 3520 nM
[13]
  GI50: 383 nM
  TGI: 851 nM
[14]
  GI50: 491 nM
  TGI: 2420 nM
[15]
  GI50: 379 nM
  TGI: 1050 nM
[16]
  GI50: 745 nM
  TGI: 6960 nM
[17]
  GI50: 567 nM
  TGI: 2160 nM
[18]
  GI50: 886 nM
  TGI: > 16700 nM
[19]
  GI50: 687 nM
  TGI: > 16700 nM
[20]
  GI50: 651 nM
  TGI: > 16700 nM
[21]
  GI50: 562 nM
  TGI: 2140 nM
[22]
  GI50: 601 nM
  TGI: 2550 nM
[23]
  GI50: 458 nM
  TGI: 1810 nM
[24]
  GI50: 529 nM
  TGI: > 16700 nM
[25]
  GI50: 520 nM
  TGI: 1630 nM
[26]
  GI50: 619 nM
  TGI: 7650 nM
[27]
  GI50: 793 nM
  TGI: 2850 nM
[28]
  GI50: 647 nM
  TGI: 2730 nM
[58]
  GI50: 548 nM
  TGI: > 16700 nM
[29]
  GI50: 570 nM
  TGI: 3350 nM
[30]
  GI50: 429 nM
  TGI: 1650 nM
[31]
  GI50: 510 nM
  TGI: 5900 nM
[32]
  GI50: 694 nM
  TGI: > 16700 nM
[33]
  GI50: 632 nM
  TGI: > 16700 nM
[34]
  GI50: 537 nM
  TGI: 6120 nM
[35]
  GI50: 610 nM
  TGI: > 16700 nM
[36]
  GI50: 588 nM
  TGI: 9930 nM
[37]
  GI50: 413 nM
  TGI: 1020 nM
[38]
  GI50: 420 nM
  TGI: 2570 nM
[39]
  GI50: 726 nM
  TGI: 4260 nM
[40]
  GI50: 453 nM
  TGI: 1530 nM
[41]
  GI50: 638 nM
  TGI: 2710 nM
[42]
  GI50: 533 nM
  TGI: 2190 nM
[43]
  GI50: 952 nM
  TGI: 4450 nM
[44]
  GI50: 357 nM
  TGI: 783 nM
[45]
  GI50: 379 nM
  TGI: 1010 nM
[46]
  GI50: 544 nM
  TGI: 2160 nM
[47]
  GI50: 616 nM
  TGI: 3890 nM
[48]
  GI50: 507 nM
  TGI: 2820 nM
[49]
  GI50: 685 nM
  TGI: 3620 nM
[50]
  GI50: 616 nM
  TGI: > 16700 nM
[51]
  GI50: 472 nM
  TGI: 1470 nM
[52]
  GI50: 543 nM
  TGI: 3970 nM
[53]
  GI50: 560 nM
  TGI: 2330 nM
[54]
  GI50: 427 nM
  TGI: 1560 nM
[55]
  GI50: 710 nM
  TGI: 2980 nM
[56]
  GI50: 422 nM
  TGI: 1710 nM
